Test results taken from patent US20220323325A1, “COMPOSITIONS COMPRISING DISSUBSTITUTE TEREPHTHALATES AND ALSO LIGHT PROECTION FILTER SUBSTANCES, DEODORANT AND/OR ANTIPERSPIRANT ACTIVE INGREDIENTS” (Evonik Operations GmbH, priority 2019, published 2022).

Assay: Dissolution capacity of UV light protection filters
Type: physicochemical
Settings: 22° C., percentage by weight; for dissolution capacity for BEMT (maximal soluble amount): Bis-Ethylhexyloxyphenol Methoxyphenyl Triazine in the compound as solvent; for dissolution capacity for BMDM (maximal soluble amount): Butyl Methoxydibenzoylmethane in the compound as solvent; for dissolution capacity for EHT (maximal soluble amount): Ethylhexyl Triazone in the compound as solvent
Source text: To test the dissolution capacity of UV light protection filters, three representative UVA or UVB light protection filters were selected representatively. These are: • Butyl Methoxydibenzoylmethane (BMDM) • Ethylhexyl Triazone (EHT) • Bis-Ethylhexyloxyphenol Methoxyphenyl Triazine (BEMT).
To determine the dissolution capacity for these three UV light protection filters, a certain amount (50 g) of one of the compounds according to the invention was initially charged in each case and temperature-controlled at 22° C. A percentage by weight of a UV light protection filter was added and stirred until this amount had fully and homogeneously dissolved. This procedure was repeated until the maximal soluble amount of the UV light protection filter had been exceeded. […] If the maximum concentration had been roughly determined in this manner, a fine determination of the concentration range was repeated around this maximum concentration using smaller weighed amounts of the UV light protection filter.

Row | dissolution capacity for BEMT (maximal soluble amount) | dissolution capacity for BMDM (maximal soluble amount) | dissolution capacity for EHT (maximal soluble amount) | Compound
1 | 11% | 18% | 6% | CCCCCCCC(=O)OCCOc1ccccc1 [2-Phenoxyethyl octanoate, reference compound]
2 | 23% | 23% | 18% | CCCCOC(=O)c1ccc(C(=O)OCCCC)cc1 [Di(n-)butane terephthalate]

Row | Compound | dissolution capacity for BEMT (maximal soluble amount) | dissolution capacity for BMDM (maximal soluble amount) | dissolution capacity for EHT (maximal soluble amount)
3 | CC(C)CCOC(=O)c1ccc(C(=O)OCCC(C)C)cc1 [Di(iso)pentyl terephthalate] | 13% | 22% | 14%
